Laboratory results from patent US20100068747A1, “Generic Assay for Monitoring Endocytosis” (Evotec Technologies GmbH, priority 2005, published 2010).

Experiments:
[1] = tested on: CHO/ETAR cells; test: Lectin labeling of fixed cells, CHO/ETAR; format: cell-based; settings: TRITC-lectin 10 nM and 20 nM
Description: (§1) Lectin labeling of fixed cells was conducted as follows: To detach confluent cells in order to prepare experiments for internalization studies, cells were always treated with EDTA solution instead of trypsin solution. For all seeding, washing, and labeling steps in 96-well plates a working volume of 100 μl per well was assessed. Cells were seeded out into a 96-well plate at different concentrations. U2OS/ETAR-GFP suspensions were adjusted to yield 2*10^4 cells/well, both of the CHO cell lines must be at 2.5*10^4 cells/well. Cells became confluent after 24 hours of incubation. In the following, they were washed with phosphate buffered saline (PBS) and fixed with 3% PFA for 20 minutes at RT. Then, cells were washed again with PBS and incubated in 10 nM and 20 nM solutions of each TRITC-lectin candidate in PBS, respectively. Again, cells were washed with PBS to remove excess lectin, and wells were refilled with PBS for analysis. For specificity controls, lectin solutions were incubated for 30 minutes prior to the application with an excess of the monosaccharide that represents the respective glyco-epitope.
(§2) The following microscopy and image analysis techniques were employed. When utilizing the epifluorescence microscope magnifications were adjusted according to the purpose of observation, e.g. single cell vs. cell collective. Concerning the filters U-MNU was used for Hoechst, U-MSWB for GFP, and U-N41007 for TRITC detection. Hoechst images were taken at 50 ms exposure time, GFP images at 100 to 200 ms and TRITC images needed 500 to 1000 ms. Overlay images were assembled with AnalySIS and tuned in color intensity to obtain the desired color contrast. Images taken to compare two experimental conditions, e.g. control vs. stimulus, featured identical exposure parameters. If possible, well areas were chosen that reflect similar states of confluence. Utilizing the Opera confocal fluorescence imager, the instrument was calibrated running standard methods for skew cropping (spatial camera alignments) and camera intensity normalization.

[2] = biological target: T1, endothelin A receptor (ETAR) (Homo sapiens, UniProt P25101); test: Lectin labeling of live cells with receptor targeted stimulation, CHO/ETAR; format: cell-based, Chinese hamster; settings: endothelin 1 stimulation
T1 construct: expressed in transfected cells; host or cells: CHO-K1 cell line clone #19, prepared in-house
T1 sequence (P25101 21-427): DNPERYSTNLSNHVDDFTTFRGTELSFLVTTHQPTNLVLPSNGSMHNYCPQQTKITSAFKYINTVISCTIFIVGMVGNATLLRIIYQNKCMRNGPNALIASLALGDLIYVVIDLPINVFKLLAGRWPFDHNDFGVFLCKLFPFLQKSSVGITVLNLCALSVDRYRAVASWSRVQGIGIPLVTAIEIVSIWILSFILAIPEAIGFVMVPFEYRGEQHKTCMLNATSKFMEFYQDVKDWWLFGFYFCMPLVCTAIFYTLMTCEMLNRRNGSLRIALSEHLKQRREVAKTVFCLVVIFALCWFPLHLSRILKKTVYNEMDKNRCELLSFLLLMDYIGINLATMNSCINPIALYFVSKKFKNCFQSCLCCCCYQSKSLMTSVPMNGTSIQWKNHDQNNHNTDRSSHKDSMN
Description: With regard to lectin labeling of live cells with receptor target stimulation, lyophilized PAR-2 peptide was resuspended in 20 mM HEPES with 0.1% BSA at 4 mM. […] The live cell labeling protocol was applied as described above. Additionally, endothelin and PAR-2 agonist peptide were added to the assay medium employed after the lectin labeling step at concentrations of 40 nM and 100 μM, respectively. For controls, same amount of resuspension liquid without agonist was supplemented. Instantly, fluorescence signals were monitored.

[3] = tested on: U2OS/ETAR-GFP cells; test: Lectin labeling of fixed cells, U2OS/ETAR-GFP; format: cell-based, human; settings: TRITC-lectin 10 nM and 20 nM
Description: as §1, §2

[4] = tested on: U2OS/ETAR-GFP cells; test: Lectin labeling of live cells, U2OS/ETAR-GFP; format: cell-based, human; settings: TRITC-lectin, 10 nM at maximum
Description: Lectin labeling of live cells was conducted as follows: Cells were seeded as described above. After 24 hours cells were washed once with PBS and incubated in the incubator for another 2 hours in the respective standard medium without serum supplement to deprive them of serum factor mediated stimuli. This step was termed starvation period. Subsequently, cells were washed gently with PBS and incubated with 37° C. tempered assay medium comprised of Hank's Balanced Salt Solution (HBSS) pH 7.4, containing 20 mM HEPES and 30 mM D-glucose. The plate was left at RT for 30 minutes to slowly level its temperature and, thus, avoid capturing of temperature drop induced membrane dynamics. This period was termed leveling period. Then, assay medium was withdrawn and wells refilled with TRITC-lectin solutions at RT to start cell labeling. Several lectin concentrations in the low nano-molar range were tested. Molar concentrations were calculated from the data provided by Vector Labs. The plate was placed on a rotating shaker at low revolutions for 10 minutes while incubating. The start of the lectin incubation is referred to as assay starting point with t=0 min. After the 10 min incubation period the cells were gently washed with PBS and wells refilled with assay buffer at RT. Instantly thereafter, fluorescence signals were monitored predominately using the epifluorescence microscope.
as §2

early spot formation, time after stimulation [2]: 20 to 30 min
Substance: succinylated Triticum vulgaris (wheat germ) agglutin [sWGA]
Staining of CHO/ETAR [1]: cell surface
Staining of U2OS/ETAR-GFP [3]: extensive fluorescence was observed at the cell surface
Live cell staining of U2OS/ETAR-GFP [4]: spot formation
